# Values quoted from earlier work as cited in patent US20250073197A1, “THE ANTI-INFLAMMATORY ROLE OF CANNABIDIOL, RETINYL PALMITATE, BETA-CARYOPHYLLENE AND TRIBUTYRIN WHEN ADMINISTERED IN CONJUNCTION” (FLG Sciences, LLC, priority 2023, published 2025).
# How the values were obtained:
# [1] = use in the disease named in Table 1 (Diabetes or Dyslipidemia)
Molecule,Side effect [1],also measured
CC(C)(Oc1ccc(CCNC(=O)c2ccc(Cl)cc2)cc1)C(=O)O [Bezafibrate],Hepatotoxicity,
CN(CCOc1ccc(CC2SC(=O)NC2=O)cc1)c1ccccn1 (stereo not shown) [Rosiglitazone],Edema,
CC(C)OC(=O)C(C)(C)Oc1ccc(C(=O)c2ccc(Cl)cc2)cc1 [Fenofibrates],Pancreatitis,
CCc1ccc(CCOc2ccc(CC3SC(=O)NC3=O)cc2)nc1 (stereo not shown) [Pioglitazone],Edema,
cannabidiol [CBD],,"gene transcripts down-regulated (24,000 gene probes; Illumina gene array): 524; gene transcripts up-regulated (24,000 gene probes; Illumina gene array): 680; genes downregulated 2-fold or more (24,000 gene probes; Illumina gene array): 38; transcripts upregulated 2-fold or more (24,000 gene probes; Illumina gene array): 123; gene transcripts significantly regulated (24,000 gene probes; Illumina gene array, 24,000 gene probes): 1204"
Cn1c(COc2ccc(CC3SC(=O)NC3=O)cc2)nc2ccccc2c1=O (stereo not shown) [Balaglitazone],Edema,
